Data reported in ChEMBL document CHEMBL1201862, “PubChem BioAssay data set” (2004).
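48-hour exposure; five concentrations; linearly interpolated endpoints. Here, GI50 denotes the concentration required for 50% inhibition of growth.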 Calls of active or inactive are those of the source. Rule as the data show it: active = GI50 up to about 1.1 µM and inactive = higher.

Assays:
Assay in all cases: inhibition of tumour cell growth, NCI panel, 48 h
SNB-78 = test system: SNB-78
XF498 = test system: XF498
KM-20L2 = test system: KM-20L2
RXF 631 = test system: RXF 631
DMS-273 = test system: DMS-273
M19-MEL = test system: M19-MEL
LXFL 529 = test system: LXFL 529
DMS-114 = test system: DMS-114
HOP-18 = test system: HOP-18

SMILES	GI50 (SNB-78)	GI50 (XF498)	GI50 (KM-20L2)	GI50 (RXF 631)	GI50 (DMS-273)	GI50 (M19-MEL)	GI50 (LXFL 529)	GI50 (DMS-114)	GI50 (HOP-18)
COC(=O)NC1C(C)OC(OC2C/C=C(/C)C3C=CC4C(OC5CC(OC6CC(O)C(OC7CC(O)C(OC)C(C)O7)C(C)O6)C(O)C(C)O5)C(C)CC(C)C4C3(C)C(=O)C3=C(O)C4(CC(C)C(CO)=CC4/C=C\2C)OC3=O)CC1(C)[N+](=O)[O-] (stereo not given)	5.47 µM (inactive)	10.6 µM (inactive)	17.1 µM (inactive)	21 µM (inactive)	11.4 µM (inactive)	4.43 µM (inactive)	2.7 µM (inactive)	2.5 µM (inactive)	15.1 µM (inactive)
CCCCCCN(N)C(=O)CC#N	> 100 µM (inactive)	–	> 100 µM (inactive)	98.9 µM (inactive)	> 100 µM (inactive)	> 100 µM (inactive)	> 100 µM (inactive)	32.2 µM (inactive)	> 100 µM (inactive)
C[N+](C)(C)CC(=O)N/N=C(/Cc1nc2ccc([N+](=O)[O-])cc2nc1O)C(=O)Nc1cc(C(F)(F)F)ccc1Cl	–	–	> 100 µM (inactive)	> 100 µM (inactive)	–	> 100 µM (inactive)	–	75 µM (inactive)	–
Cc1cc(O)c2c3c1C(=O)Oc1c(CO)c(O)c(C(=O)O)c(c1O3)C=NN=Cc1c3c(c(CO)c(O)c1C(=O)O)OC(=O)c1c(C)cc(O)c(c1O3)C=NN=C2	> 100 µM (inactive)	> 100 µM (inactive)	> 100 µM (inactive)	–	–	> 100 µM (inactive)	> 100 µM (inactive)	51.5 µM (inactive)	> 100 µM (inactive)
CO[C@H](c1ccccc1)[C@H](C)N(C)c1ccc2ccccc2c1C1=NC(C)(C)CO1	–	17.1 µM (inactive)	13.4 µM (inactive)	15 µM (inactive)	19.2 µM (inactive)	15.3 µM (inactive)	14.9 µM (inactive)	12.1 µM (inactive)	17.1 µM (inactive)
N#Cc1c(-c2ccc(Cl)c(Cl)c2)c(-c2ccc(Cl)c(Cl)c2)nn(CC(=O)O)c1=O	> 100 µM (inactive)	27.9 µM (inactive)	24.2 µM (inactive)	64.9 µM (inactive)	44.7 µM (inactive)	> 100 µM (inactive)	72.4 µM (inactive)	–	64.3 µM (inactive)
Nc1nc(N)c2cc(CNc3ccc(C(=O)NC(CC(=O)O)C(=O)O)c(Cl)c3)ccc2n1 (stereo not given)	56 µM (inactive)	–	0.117 µM (active)	–	0.0552 µM (active)	0.596 µM (active)	–	< 0.01 µM (active)	> 100 µM (inactive)
Cc1c(C(=O)CC(=O)C(=O)Nc2ccc(Cl)c(Cl)c2)[n+]([O-])c2ccccc2[n+]1[O-]	48.9 µM (inactive)	–	52.5 µM (inactive)	22.5 µM (inactive)	26 µM (inactive)	15.7 µM (inactive)	16.3 µM (inactive)	16.9 µM (inactive)	–
N#C/C(=C\c1c(O)cc(O)cc1O)C(N)=O	> 100 µM (inactive)	> 100 µM (inactive)	> 100 µM (inactive)	> 100 µM (inactive)	> 100 µM (inactive)	–	> 100 µM (inactive)	> 100 µM (inactive)	–
O/N=C1/C(=C/c2ccc(Cl)c(Cl)c2)CCCC1C(NO)c1ccc(Cl)c(Cl)c1 (stereo not given)	18.7 µM (inactive)	16.3 µM (inactive)	17.9 µM (inactive)	–	18.8 µM (inactive)	18.2 µM (inactive)	15.7 µM (inactive)	17.9 µM (inactive)	16.3 µM (inactive)
O=C1CCC2(CC1)SCCCS2	–	> 100 µM (inactive)	> 100 µM (inactive)	–	> 100 µM (inactive)	> 100 µM (inactive)	> 100 µM (inactive)	> 100 µM (inactive)	–
O=C1OC(=O)C([Se]c2ccccc2)=C1[Se]c1ccccc1	> 100 µM (inactive)	–	> 100 µM (inactive)	> 100 µM (inactive)	–	–	> 100 µM (inactive)	> 100 µM (inactive)	> 100 µM (inactive)
C/C(=N/N)c1ccc2[nH]c3c(C)cc([N+](=O)[O-])c(C)c3c2c1	–	11.4 µM (inactive)	–	–	4.52 µM (inactive)	11.3 µM (inactive)	–	9.89 µM (inactive)	10.7 µM (inactive)
Cc1cc(Cl)ccc1NC(=O)/C(=N\NC(C)(C)C)C(C#N)c1nc(-c2ccc([N+](=O)[O-])cc2)cs1 (stereo not given)	> 100 µM (inactive)	> 100 µM (inactive)	> 100 µM (inactive)	> 100 µM (inactive)	> 100 µM (inactive)	> 100 µM (inactive)	> 100 µM (inactive)	> 100 µM (inactive)	> 100 µM (inactive)
CC1=C(C(=O)Nc2cc(=O)n(C)c(=O)n2C)C(c2cccc([N+](=O)[O-])c2)C(C(=O)Nc2cc(=O)n(C)c(=O)n2C)=C(C)N1	> 100 µM (inactive)	–	> 100 µM (inactive)	–	–	> 100 µM (inactive)	> 100 µM (inactive)	80.5 µM (inactive)	–
CC1(O)C(C)(O)C2(C)O[Te]3(OC12C)OC1(C)C(C)(O)C(C)(O)C1(C)O3 (stereo not given)	> 100 µM (inactive)	> 100 µM (inactive)	–	18.5 µM (inactive)	19.3 µM (inactive)	22.1 µM (inactive)	16 µM (inactive)	20 µM (inactive)	–
Oc1ccccc1/C=C/c1csnn1	> 100 µM (inactive)	> 100 µM (inactive)	> 100 µM (inactive)	> 100 µM (inactive)	> 100 µM (inactive)	> 100 µM (inactive)	> 100 µM (inactive)	> 84.1 µM (inactive)	> 100 µM (inactive)
CCOC(=O)c1cnc2cc3cccccc3n2c1=O	> 100 µM (inactive)	–	> 100 µM (inactive)	–	31.8 µM (inactive)	–	> 100 µM (inactive)	35 µM (inactive)	–
O=NN(CCCl)C(=O)N[C@H]1CC[C@H](CC(=O)O)CC1	> 100 µM (inactive)	> 100 µM (inactive)	> 46.5 µM (inactive)	–	> 100 µM (inactive)	> 100 µM (inactive)	> 100 µM (inactive)	61.9 µM (inactive)	> 78.7 µM (inactive)
O=C(CC1(O)C(=O)Nc2c(Cl)cc(Cl)cc21)c1cccc([N+](=O)[O-])c1 (stereo not given)	41.5 µM (inactive)	20.7 µM (inactive)	52.1 µM (inactive)	24.8 µM (inactive)	39.4 µM (inactive)	5.14 µM (inactive)	15.1 µM (inactive)	21.5 µM (inactive)	32.3 µM (inactive)
COCNC(=NC#N)NCOC	–	> 100 µM (inactive)	> 76 µM (inactive)	> 100 µM (inactive)	> 47.1 µM (inactive)	> 59.8 µM (inactive)	> 100 µM (inactive)	> 51.8 µM (inactive)	> 100 µM (inactive)
Cn1ccnc1CCc1c(Cl)cccc1Cl	> 100 µM (inactive)	–	> 100 µM (inactive)	–	> 100 µM (inactive)	> 100 µM (inactive)	> 100 µM (inactive)	> 100 µM (inactive)	51.4 µM (inactive)
O=C1N[C@H](Cc2c[nH]cn2)C(=O)N2CCC[C@@H]12	> 100 µM (inactive)	> 100 µM (inactive)	> 100 µM (inactive)	–	> 100 µM (inactive)	> 100 µM (inactive)	> 100 µM (inactive)	> 100 µM (inactive)	–
Cc1cc(Cl)cc2c1NC(=O)C2(O)CC(=O)c1ccc(Br)cc1 (stereo not given)	–	30.2 µM (inactive)	> 91.4 µM (inactive)	> 71.3 µM (inactive)	47.8 µM (inactive)	22.5 µM (inactive)	68.9 µM (inactive)	34.8 µM (inactive)	–
CCOC(=O)c1c[nH]c2c(ccc3nn(C)nc32)c1=O	15.5 µM (inactive)	> 100 µM (inactive)	> 100 µM (inactive)	> 100 µM (inactive)	19.9 µM (inactive)	> 100 µM (inactive)	> 100 µM (inactive)	49.8 µM (inactive)	> 100 µM (inactive)
Cc1c(Cl)c2ccccc2n1S(=O)(=O)c1ccccc1	–	> 100 µM (inactive)	26.5 µM (inactive)	–	38.7 µM (inactive)	–	42.1 µM (inactive)	37.9 µM (inactive)	–
O=C1c2ccccc2CC1C1(O)C(=O)Nc2ccccc21 (stereo not given)	> 100 µM (inactive)	55.6 µM (inactive)	> 100 µM (inactive)	> 100 µM (inactive)	> 100 µM (inactive)	> 100 µM (inactive)	> 100 µM (inactive)	> 100 µM (inactive)	–
CC(C(=O)c1ccc(Cl)cc1)C1OC(=O)C(Cl)=C1Cl (stereo not given)	–	20.5 µM (inactive)	86.1 µM (inactive)	> 100 µM (inactive)	–	23 µM (inactive)	19.8 µM (inactive)	26.2 µM (inactive)	50.4 µM (inactive)
CCCC(C)C[C@@H](C)CC(C)/C=C(\C)c1oc(=O)c(C)c(O)c1C.CC[C@@H](C)C[C@@H](C)C[C@@H](C)/C=C(\C)c1oc(=O)c(C)c(O)c1C (stereo not given in full)	20.9 µM (inactive)	–	12.6 µM (inactive)	–	18.5 µM (inactive)	10 µM (inactive)	13.2 µM (inactive)	16.8 µM (inactive)	–
